Test results published in PubChem BioAssay (NCI).
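Compound exposure: 48 hours, 5 concentrations, 96-well plates. GI50 marks 50% less growth. TGI is the concentration that stops growth completely.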

Legend:
Test in all cases: NCI-60 cell line screen, 48 h
COLO 205 colon = tested on: COLO 205 colon
HCT-15 colon = tested on: HCT-15 colon
HT29 colon = tested on: HT29 colon
K-562 leukemia = tested on: K-562 leukemia
LOX IMVI melanoma = tested on: LOX IMVI melanoma
OVCAR-5 ovarian = tested on: OVCAR-5 ovarian
RPMI-8226 leukemia = tested on: RPMI-8226 leukemia
SF-268 CNS = tested on: SF-268 CNS
UACC-257 melanoma = tested on: UACC-257 melanoma

SMILES | TGI (COLO 205 colon) [µM] | TGI (HCT-15 colon) [µM] | TGI (HT29 colon) [µM] | TGI (K-562 leukemia) [µM] | TGI (LOX IMVI melanoma) [µM] | TGI (OVCAR-5 ovarian) [µM] | TGI (RPMI-8226 leukemia) [µM] | TGI (SF-268 CNS) [µM] | TGI (UACC-257 melanoma) [µM] | GI50 (COLO 205 colon) [µM] | GI50 (HCT-15 colon) [µM] | GI50 (HT29 colon) [µM] | GI50 (K-562 leukemia) [µM] | GI50 (LOX IMVI melanoma) [µM] | GI50 (OVCAR-5 ovarian) [µM] | GI50 (RPMI-8226 leukemia) [µM] | GI50 (SF-268 CNS) [µM] | GI50 (UACC-257 melanoma) [µM]
CC1=C(C(=O)Nc2ccccc2C)C(c2ccc([N+](=O)[O-])cc2)C(C(=O)Nc2ccccc2C)=C(C)N1 | > 100 | > 100 | > 100 | > 100 | > 100 | > 100 | > 100 | > 100 | > 100 | – | – | – | – | – | – | – | – | –
FC(F)(F)c1ccc(C=NC23CC4CC(CC(C4)C2)C3)cc1 | > 100 | > 100 | > 100 | > 100 | > 100 | > 100 | > 100 | > 100 | > 100 | – | – | – | – | – | – | – | – | –
CCCCCCCCCCCCCC/C(C(=O)OC)=C(/O)C(=O)OCC | > 100 | 36.3 | > 100 | > 100 | 39.3 | 70.1 | > 100 | 64.3 | > 100 | – | – | – | – | – | – | – | – | –
CC(=O)O[C@H]1[C@@H]2[C@@H]3[C@@H](C[C@H]1C)[C@@H](C)CO[C@@]1(C)CC/C=C(/C)C[C@@H]2O[C@@H]31 | > 100 | > 100 | > 100 | > 100 | > 100 | > 100 | > 100 | > 100 | > 100 | – | – | – | – | – | – | – | – | –
NC(=O)c1csc(C2C=CC(CO)O2)n1 (centres undefined) | > 100 | > 100 | > 100 | > 100 | > 100 | > 100 | > 100 | > 100 | > 100 | – | – | – | – | – | – | – | – | –
CC(=O)NNc1nc(C)c(C(/C=C/c2ccc(Cl)cc2)=N\NS(=O)(=O)c2ccc(C)cc2)s1 | > 100 | > 100 | > 100 | > 100 | > 100 | > 100 | > 100 | > 100 | > 100 | – | – | – | – | – | – | – | – | –
Cc1ccc(NS(=O)(=O)c2cc(C(C)(C)C)ccc2OCCOCCOCCOc2ccc(C(C)(C)C)cc2S(=O)(=O)Nc2ccc(C)cc2)cc1 | > 100 | > 100 | > 100 | > 100 | > 100 | > 100 | – | > 100 | > 100 | – | – | – | – | – | – | – | – | –
CCC(C(=O)[O-])C(=O)[O-].CCC(C(=O)[O-])C(=O)[O-].N.N.NCCCCCN.[Pt+4].[Pt+4] | > 100 | > 100 | > 100 | > 100 | > 100 | > 100 | > 100 | > 100 | > 100 | 47.8 | > 100 | > 100 | > 100 | > 100 | > 100 | > 100 | > 100 | > 100
C=C(CN(CC(=C)C(=O)c1ccccc1)C(C)(C)C)C(=O)c1ccccc1 | 7.52 | – | 41.9 | 21.1 | 30.8 | 34.3 | 68.4 | 17 | 32.6 | – | – | – | – | – | – | – | – | –
CC1C=C(OC(=O)c2ccccc2)C(=O)C(n2cc(F)c(=O)n(C(=O)c3ccccc3)c2=O)O1 (centres undefined) | 62.1 | > 100 | > 100 | 55.1 | 55 | – | > 100 | – | > 100 | – | – | – | – | – | – | – | – | –
Cn1cc2c(n1)c(N/N=C/c1ccccc1)nn1nnnc21 | > 100 | > 100 | > 100 | > 100 | > 100 | – | > 100 | > 100 | > 100 | – | – | – | – | – | – | – | – | –
N/N=C1\c2ccccc2C2/C(=N\N)c3ccccc3C12 (centres undefined) | > 100 | > 100 | > 100 | > 100 | > 100 | > 100 | > 100 | > 100 | > 100 | – | – | – | – | – | – | – | – | –
CC1CCCC(C(O)CC2CC(=O)N(c3ccccc3)C(=O)C2)C1=O (centres undefined) | > 100 | – | > 100 | > 100 | > 100 | > 100 | > 100 | > 100 | > 100 | – | – | – | – | – | – | – | – | –
C=CCNC1=C(C(=O)OCC)C(=O)CO1 | – | > 100 | > 100 | > 100 | > 100 | > 100 | > 100 | > 100 | > 100 | – | – | – | – | – | – | – | – | –
C/C(=N\NC(=O)CC(=O)Nc1ccc(Cl)cc1)c1cc2ccccc2oc1=O | > 100 | > 100 | > 100 | > 100 | > 100 | – | > 100 | – | > 100 | – | – | – | – | – | – | – | – | –
CN(C)c1ccc(/C=C2\CNC/C(=C\c3ccc(N(C)C)cc3)C2=O)cc1 | > 100 | 15.5 | 24.1 | > 100 | 37 | > 100 | > 100 | – | > 100 | – | – | – | – | – | – | – | – | –
O=C1CC2CCCCC2=C1O (centres undefined) | > 100 | > 100 | – | > 100 | > 100 | > 100 | > 100 | > 100 | > 100 | – | – | – | – | – | – | – | – | –
CCOP(=O)(CC(=O)C1=C(O)C(CCCNC(=O)OC(C)(C)C)N(Cc2ccc(OC)c(OC)c2)C1=O)OCC (centres undefined) | > 100 | – | > 100 | > 100 | > 100 | > 100 | > 100 | > 100 | > 100 | – | – | – | – | – | – | – | – | –
